Test results reported in patent US7741355B2, “Small-molecule modulators of TRP-p8 activity” (Dendreon Corporation, priority 2006, dated 2010).
Read-outs that look alike come from different tables or passages of the source. Blank lines part the entries; values can stand above or below the molecule they belong to.

What was measured:
Trp-p8 = target: T1, Trp-p8 (Homo sapiens, UniProt Q7Z2W7, T58I); assay: ATP viability assay with CHO/Trp-p8 cells at 37° C.; type: cell-based
T1 construct: expressed in transfected cells; host or cells: CHO (Chinese Hamster Ovary) cells
T1 sequence (Q7Z2W7 whole entry T58I): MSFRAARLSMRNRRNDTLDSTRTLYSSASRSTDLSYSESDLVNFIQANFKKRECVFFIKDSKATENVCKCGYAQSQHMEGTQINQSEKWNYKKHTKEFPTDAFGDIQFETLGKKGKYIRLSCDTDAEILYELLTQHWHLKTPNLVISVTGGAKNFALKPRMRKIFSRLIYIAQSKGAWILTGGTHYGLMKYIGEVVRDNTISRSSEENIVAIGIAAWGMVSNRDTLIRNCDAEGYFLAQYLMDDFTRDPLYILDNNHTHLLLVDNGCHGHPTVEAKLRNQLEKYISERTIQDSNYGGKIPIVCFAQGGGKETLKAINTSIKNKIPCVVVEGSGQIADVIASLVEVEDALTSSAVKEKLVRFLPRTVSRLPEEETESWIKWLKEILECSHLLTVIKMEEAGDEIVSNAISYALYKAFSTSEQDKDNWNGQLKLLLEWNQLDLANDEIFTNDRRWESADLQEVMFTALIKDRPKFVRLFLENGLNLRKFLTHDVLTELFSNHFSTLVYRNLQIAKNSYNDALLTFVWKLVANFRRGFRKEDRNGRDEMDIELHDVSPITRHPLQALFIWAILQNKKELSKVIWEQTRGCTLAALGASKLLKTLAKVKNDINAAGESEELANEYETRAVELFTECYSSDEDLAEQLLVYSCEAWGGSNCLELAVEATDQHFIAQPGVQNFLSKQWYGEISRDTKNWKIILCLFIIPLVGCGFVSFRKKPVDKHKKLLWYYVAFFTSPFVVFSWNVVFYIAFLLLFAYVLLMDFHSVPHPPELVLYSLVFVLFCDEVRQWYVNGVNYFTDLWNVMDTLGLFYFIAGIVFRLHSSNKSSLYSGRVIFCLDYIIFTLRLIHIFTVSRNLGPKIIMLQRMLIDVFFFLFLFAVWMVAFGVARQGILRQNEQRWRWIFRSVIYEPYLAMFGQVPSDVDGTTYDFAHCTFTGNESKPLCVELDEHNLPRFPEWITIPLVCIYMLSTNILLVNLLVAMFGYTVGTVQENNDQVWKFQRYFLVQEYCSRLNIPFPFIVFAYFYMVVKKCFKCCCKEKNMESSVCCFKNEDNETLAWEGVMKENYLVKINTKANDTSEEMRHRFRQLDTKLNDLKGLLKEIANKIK
Excerpt: (§1) Human Trp-p8 transfected CHO cells (referred to herein as CHO/Trp-p8) were generated for use in experiments of the present invention. Expression of Trp-p8 polypeptide in this transfectant and the absence of any endogenous expression in the non-transfected CHO was confirmed by western blot and immunofluorescence using a Trp-p8 specific antibody (GS2.20) as well as the calcium flux assay with Icilin (1-[2-hydroxyphenyl]-4-[3-nitrophenyl]-1,2,3,6-tetrahydropyrimidine-2-one) and menthol (2-isopropyl-5-methyl-cyclohexanol). Non-transfected CHO cells were used to establish the specificity of the effects of the compounds observed with CHO/Trp-p8.
This Example discloses an ATP viability assay suitable for screening for effective Trp-p8 agonists. The ATP viability assay described herein employs CHO cells expressing an exogenous Trp-p8 cDNA. This example further establishes that Trp-p8 agonists of the present invention are effective in decreasing the viability of Trp-p8 expressing cells.
The concentration of intracellular ATP declines very rapidly when metabolically active cells undergo necrosis and/or apoptosis. The ATP concentration and consequently the relative cell viability can be measured by established methods using commercially available reagents. In the agonist screening methodology disclosed herein, a compound that specifically decreases the viability of CHO/Trp-p8 cells is referred to as an agonist.
(§2) As a primary screen for efficacy and specificity for agonists, both the non-transfected CHO and CHO/Trp-p8 cells were exposed to 1 or 10 μM of test compounds in 1% dimethylsulfoxide (DMSO) or 1% DMSO (control) in a 96-well black walled, black-bottomed, cell-culture treated plate. DMSO was the solvent for all of the compounds tested. After 24-26 hours at 37° C., the cells were lysed and ATP concentration determined via a chemiluminescence assay using a commercially available reagent kit—Cell Titer-Glo (Promega; Madison, Wis.). […] (EC50 is defined herein as the agonist concentration at which there is a 50% reduction in relative cell viability).

[1] = Sustained plasma levels after oral dosing (half-life, species not stated); type: in vivo; conditions: oral administration, read-out: t½ (sustained plasma levels) (converted)
Excerpt: (§3) FIGS. 9A and 9B are graphs depicting the plasma concentrations of several compounds, as a function of time and dose, in rats (FIG. 9A), and dogs (FIG. 9B) after a single oral dose. […] Blood was collected at the indicated time points, and analyzed for drug levels.

LuCaP = LuCaP murine tumor xenograft model expressing Trp-p8; type: in vivo, mice; conditions: intraperitoneal injection, once a day for 5 days; slower-growing tumor
Experimental: The LuCaP tumor model was obtained from Robert L. Vassella, Ph.D., Professor of Urology in the University of Washington's School of Medicine. The length (L; longest dimension) and width (W; dimension perpendicular to and in the same plane as length) of each tumor was measured with Vernier calipers, and the tumor volume was approximated by a formula for the volume of an ellipsoid: 0.52*L*W^2. When the average tumor volume reached approximately 150 mm^3, the mice were administered the compound, as an aqueous formulation, by intraperitoneal injection, once a day for 5 days. Tumors were then subsequently measured on the indicated days. The data is presented as mean tumor volumes±standard error of the mean.
Human prostate cancer xenografts expressing Trp-p8 (LuCaP, from Dr. Robert Vessella's lab in University of Washington—as assessed by in situ hybridization, quantitative polymerase chain reaction, and immunohistochemistry using a protein specific rabbit polyclonal antibody, T-904), as well as cell lines engineered to express Trp-p8, including CHO (Chinese Hamster Ovary) and EL-4 (Mouse Thymoma) cell lines, were used to establish tumor models in mice. Trp-p8 expression in the transfectants was confirmed by western blots and immunofluorescence using a Trp-p8 specific antibody (GS 2.20) as well as by response to known agonists in a calcium influx functional assay. […]

[2] = system: CHO-K1 cells lacking Trp-p8; assay: Matched CHO (Trp-p8-) murine tumor xenograft model (CHO-K1 cells lacking Trp-p8); type: in vivo, mice; conditions: 100 mg/kg, single oral dose
Experimental: Mice were injected subcutaneously with CHO-K1 cells lacking Trp-p8, resulting in the formation of solid tumors. The length (L; longest dimension) and width (W; dimension perpendicular to and in the same plane as length) of each tumor was measured with Vernier calipers, and the tumor volume was approximated by a formula for the volume of an ellipsoid: 0.52*L*W^2. When the average tumor volume reached approximately 50 mm^3, the mice were randomized into groups, and administered either a single dose of the compound as an aqueous formulation, or vehicle, by oral gavage. Tumors were then subsequently measured on the indicated days. The data is presented as mean tumor volumes±standard error of the mean.

Parent CHO = assay: ATP viability assay with non-transfected (parent) CHO cells; type: cell-based, Chinese Hamster; conditions: Cricetulus griseus
Excerpt: as §1, §2

[3] = Plasma concentrations in dogs after a single oral dose; type: in vivo; conditions: Beagle dogs (FIG. 9B), aqueous formulation, oral gavage
Excerpt: as §3

CHO/Trp-p8 xenograft = assay: CHO/Trp-p8 murine tumor xenograft model; type: in vivo, mice
Experimental: FIGS. 6A-6B are graphs depicting results from an exemplary animal model suitable for testing and characterizing small-molecule Trp-p8 modulators of the present invention. Mice were injected subcutaneously with CHO/Trp-p8 cells, resulting in the formation of solid tumors. The length (longest dimension) and width (dimension perpendicular to and in the same plane as length) of each tumor was measured with Vernier calipers, and the tumor volume was approximated by a formula for the volume of an ellipsoid: 0.52*L*W^2. When the average tumor volume reached approximately 100 mm^3, the mice were randomized into groups. In FIG. 6A, the mice were administered a single dose of either a study compound as an aqueous formulation, or vehicle alone, by oral gavage. […] Tumors were then subsequently measured on the indicated days. […]
Mice were injected subcutaneously with CHO/Trp-p8 cells, resulting in the formation of solid tumors. The length (L; longest dimension) and width (W; dimension perpendicular to and in the same plane as length) of each tumor was measured with calipers, and the tumor volume was approximated by a formula for the volume of an ellipsoid: 0.52*L*W^2. […] Tumors were subsequently measured on the indicated days. […]
Mice were injected subcutaneously with CHO/Trp-p8 cells, resulting in the formation of solid tumors. […] Tumors were then subsequently measured on the indicated days. […]

[4] = Plasma concentrations in rats after a single oral dose; type: in vivo; conditions: rodents (FIG. 9A: rats), aqueous formulation, oral gavage
Excerpt: as §3

[5] = ATP viability assay, read-out: CHO/Trp-p8 EC50
[6] = Table 2, Formula I-B, CHO/Trp-p8 cells, 24-26 hours at 37° C., 50% reduction in relative cell viability, read-out: EC50
[7] = Table 5, Formula I-E, CHO/Trp-p8 cells, 24-26 hours at 37° C., 50% reduction in relative cell viability, read-out: EC50

half-life [1]: ~9 h
exposure after a single oral administration [3]: prolonged exposure
exposure after a single oral administration [4]: prolonged exposure
SMILES: COc1ccc2c(c1)n(CCN)c(=O)n2C(=O)[C@@H]1C[C@H](C)CC[C@H]1C(C)C [Compound I]
times more potent than Compounds II, III, and IV (Trp-p8; ATP viability assay): approximately 3 times
EC50 (Trp-p8; [5]): 3 nM
effect of treatment on tumor growth, LuCaP model (LuCaP): statistically significant regression, as well as growth-inhibition
efficacy in the matched CHO (Trp-p8-) model [2]: did not show significant efficacy
EC50 (Parent CHO): > 10000 nM
effect of treatment on tumor growth, CHO/Trp-p8 model (CHO/Trp-p8 xenograft; fast-growing tumor): attenuated growth, but did not cause regression
efficacy in the CHO/Trp-p8 xenograft model (CHO/Trp-p8 xenograft; single oral dose of 10 mg/kg): significant efficacy

half-life [1]: ~9 h
exposure after a single oral administration [3]: prolonged exposure
exposure after a single oral administration [4]: prolonged exposure
SMILES: CC(C)[C@@H]1CC[C@@H](C)C[C@H]1C(=O)Nc1cc(-c2ccccc2)nn1CCN [III]
EC50 (Trp-p8; [5]): 10 nM
EC50 (Parent CHO): > 10000 nM

SMILES: CC(C)[C@@H]1CC[C@@H](C)C[C@H]1C(=O)NCCc1ccccc1CN [Compound 34]
EC50 (Trp-p8; Table 4, Formula I-D, CHO/Trp-p8 cells, 24-26 hours at 37° C., 50% reduction in relative cell viability, read-out: EC50): < 20 nM

SMILES: CC(C)[C@@H]1CC[C@@H](C)C[C@H]1C(=O)Nc1cc(-c2cccc(C#N)c2)nn1CCN [Compound 23]
EC50 (Trp-p8; [6]): 21 to 50 nM

SMILES: CNCCn1c(=O)n(C(=O)[C@@H]2C[C@H](C)CC[C@H]2C(C)C)c2ccccc21 [Compound 66]
EC50 (Trp-p8; [7]): 21 to 50 nM

SMILES: COc1ccc(NC(=O)[C@@H]2C[C@H](C)CC[C@H]2C(C)C)c(NC(=O)[C@H](N)CO)c1 [Compound 7]
EC50 (Trp-p8; Table 1, Formula I-A, CHO/Trp-p8 cells, 24-26 hours at 37° C., 50% reduction in relative cell viability, read-out: EC50): 21 to 50 nM

SMILES: CC(C)[C@@H]1CC[C@@H](C)C[C@H]1C(=O)n1c(=O)n(CCN)c2cnccc21 [Compound 54]
EC50 (Trp-p8; [7]): 21 to 50 nM

SMILES: CCOC(=O)N1CCN(C(=O)c2ccc3c(c2)n(CCN)c(=O)n3C(=O)[C@@H]2C[C@H](C)CC[C@H]2C(C)C)CC1 [Compound 69]
EC50 (Trp-p8; [7]): 51 to 100 nM

SMILES: CC(C)[C@@H]1CC[C@@H](C)C[C@H]1C(=O)Nc1cc(-c2ccccc2)nn1CCN [Compound 16]
EC50 (Trp-p8; [6]): < 20 nM

SMILES: CC(C)[C@@H]1CC[C@@H](C)C[C@H]1C(=O)n1c(=O)n(CCN)c2ccccc21 [Compound 50, 1-(2-Aminoethyl)-3-(2-isopropyl-5-methylcyclohexanecarbonyl)-1,3-dihydro-benzoimidazol-2-one]
EC50 (Trp-p8; [7]): < 20 nM

SMILES: CC(C)[C@@H]1CC[C@@H](C)C[C@H]1C(=O)n1c(=O)n(CCN)c2cc(OCc3ccccc3)ccc21 [Compound 75]
EC50 (Trp-p8; [7]): 51 to 100 nM

half-life [1]: ~9 h
exposure after a single oral administration [3]: prolonged exposure
exposure after a single oral administration [4]: prolonged exposure
SMILES: CC(C)[C@@H]1CC[C@@H](C)C[C@H]1C(=O)n1c(=O)n(CCN)c2ccccc21 [II]
EC50 (Trp-p8; [5]): 10 nM
EC50 (Parent CHO): > 10000 nM

SMILES: C#CCOc1ccc2c(c1)n(CCN)c(=O)n2C(=O)[C@@H]1C[C@H](C)CC[C@H]1C(C)C [Compound 46]
EC50 (Trp-p8; [7]): < 20 nM
